Data on 36 molecules can be found in patent US12351570B2 (MERCK PATENT GMBH, priority 2018, dated 2025).

This test deals with MDA-MB-231 cells. Kind of test: Extracellular lactate production inhibition after 4 h, MDA-MB-231. As to conditions: Homo sapiens, MDA-MB-231.
Procedure: Extracellular Lactate Production Inhibition after 4 h
Cells were plated in growth media supplemented with 10% FBS, followed by overnight recovery at 37° C., 5% CO2. […] Plates were then moved for 4 h incubation at 37° C., 5% CO2 with subsequent 20 μl media transfer to empty 384-well transparent plates. […] Plates were short-spun and measured kinetically in absorbance mode (530 nm, 12 min measurement time with 2-minute intervals between subsequent readouts at 30° C.). Differences in the signal between T8 min and T0min were normalized to vehicle (cells w/ 0.25% DMSO) and quasi-positive (LCIS buffer w/ 0.25% DMSO) controls and plotted against logarithmically-transformed test compound concentrations with fitting the 4-parameter model in GraphPad Prism software.
`Cc1cncc2c(S(=O)(=O)Nc3ccccc3C#Cc3ccc(C(=O)O)cc3)cccc12` [Compound 54, 4-{2-[2-(4-methylisoquinoline-8-sulfonamido)phenyl]ethynyl}benzoic acid] returned a half-inhibitory concentration (IC50) of 1000 to 100000 nM.

As to `COc1ccc(S(=O)(=O)Nc2ccc(Cl)cc2C#Cc2cnc(C(=O)O)cc2OC)cc1` [Compound 388, 5-[5-Chloro-2-(4-methoxy-benzenesulfonylamino)-phenylethynyl]-4-methoxy-pyridine-2-carboxylic acid], the IC50 lay in the range of 10 to 100 nM.

As to `COc1ccc(S(=O)(=O)Nc2ccccc2C#Cc2ccc(C(=O)OC(C)C)nc2)c2ncccc12` [Compound 167, propan-2-yl 5-{2-[2-(5-methoxyquinoline-8-sulfonamido)phenyl]ethynyl}pyridine-2-carboxylate], the concentration for half-maximal inhibition (IC50) is 10 to 100 nM.

As for `COc1cc(S(=O)(=O)Nc2ccccc2C#Cc2ccc(C(=O)O)cc2)cc2ccccc12` [Compound 258, 4-[2-(4-Methoxy-naphthalene-2-sulfonylamino)-phenylethynyl]-benzoic acid], the IC50 is 100 to 1000 nM.

Take `COc1ccc(S(=O)(=O)Nc2ccc(Br)cc2C#Cc2cnc(C(=O)O)c3ccccc23)c(C)c1C` [Compound 398, 4-{2-[5-bromo-2-(4-methoxy-2,3-dimethylbenzenesulfonamido)phenyl]ethynyl}isoquinoline-1-carboxylic acid]: the concentration for half-maximal inhibition (IC50) lay within 10 to 100 nM.

`O=C(O)c1ccc(C#Cc2ccccc2NS(=O)(=O)c2cccc3ccccc23)cn1` [Compound 70, 5-{2-[2-(naphthalene-1-sulfonamido)phenyl]ethynyl}pyridine-2-carboxylic acid] yielded an IC50 of 100 to 1000 nM.

Molecule `O=C(O)c1ccc(C#Cc2ccccc2NS(=O)(=O)c2ccc(OC(F)(F)F)c3cccnc23)cn1` [Compound 384, 5-[2-(5-Trifluoromethoxy-quinoline-8-sulfonylamino)-phenylethynyl]-pyridine-2-carboxylic acid] had an IC50 of 10 to 100 nM.

As to `CCOc1ccc2cccnc2c1S(=O)(=O)Nc1ccccc1C#Cc1ccc(C(=O)O)nc1` [Compound 210, 5-{2-[2-(7-ethoxyquinoline-8-sulfonamido)phenyl]ethynyl}pyridine-2-carboxylic acid], the IC50 was in the range of 10 to 100 nM.

For `O=C(O)c1ccc(C#Cc2ccccc2NS(=O)(=O)c2ccc3cc(Cl)ccc3c2)cc1` [Compound 43, 4-{2-[2-(6-chloronaphthalene-2-sulfonamido)phenyl]ethynyl}benzoic acid], the IC50 lay within 100 to 1000 nM.

`Cc1ccc2cccc(S(=O)(=O)Nc3ccccc3C#Cc3ccc(C(=O)O)nc3)c2n1` [Compound 267, 5-[2-(2-Methyl-quinoline-8-sulfonylamino)-phenylethynyl]-pyridine-2-carboxylic acid] gave a half-inhibitory concentration (IC50) of 100 to 1000 nM.

The molecule `COc1cc(C(=O)O)ncc1C#Cc1ccccc1NS(=O)(=O)c1c(C)cc(OC)c2cccnc12` [Compound 372, 4-Methoxy-5-[2-(5-methoxy-7-methyl-quinoline-8-sulfonylamino)-phenylethynyl]-pyridine-2-carboxylic acid] showed an IC50 of 1 to 10 nM.

Molecule `COC(=O)c1cc(Cl)c(C#Cc2ccccc2NS(=O)(=O)c2ccc(OC)c3cccnc23)cn1` [Compound 157, methyl 4-chloro-5-{2-[2-(5-methoxyquinoline-8-sulfonamido)phenyl]ethynyl}pyridine-2-carboxylate] returned a half-inhibitory concentration (IC50) of 10 to 100 nM.

The molecule `COc1ccc(S(=O)(=O)Nc2ccccc2C#Cc2cc(F)c(C(=O)O)c(F)c2)c2ccccc12` [Compound 27, 2,6-difluoro-4-{2-[2-(4-methoxynaphthalene-1-sulfonamido)phenyl]ethynyl}benzoic acid] had a 50% inhibitory concentration (IC50) of 1000 to 100000 nM.

`Cc1cc(C#Cc2ccccc2NS(=O)(=O)c2c(C)ccc3cccnc23)cnc1C(=O)O` [Compound 102, 3-methyl-5-{2-[2-(7-methylquinoline-8-sulfonamido)phenyl]ethynyl}pyridine-2-carboxylic acid] came in with an IC50 of 10 to 100 nM.

The molecule `COc1cc(C(=O)O)ncc1C#Cc1cc(Br)c(F)cc1NS(=O)(=O)c1ccc(OC)c2cccnc12` [Compound 358, 5-{2-[5-bromo-4-fluoro-2-(5-methoxyquinoline-8-sulfonamido)phenyl]ethynyl}-4-methoxypyridine-2-carboxylic acid] registered a half-inhibitory concentration (IC50) of 1 to 10 nM.

In turn, `O=C(O)c1ccc(C#Cc2ccccc2NS(=O)(=O)c2cc(Cl)c(Cl)s2)cc1` [Compound 275, 4-{2-[2-(4,5-dichlorothiophene-2-sulfonamido)phenyl]ethynyl}benzoic acid] gave an IC50 of 1000 to 100000 nM.

`CCOc1ccnc2c(S(=O)(=O)Nc3ccccc3C#Cc3ccc(C(=O)O)nc3)cccc12` [Compound 348, 5-{2-[2-(4-ethoxyquinoline-8-sulfonamido)phenyl]ethynyl}pyridine-2-carboxylic acid] came in with a half-inhibitory concentration (IC50) of 10 to 100 nM.

The molecule `COC(=O)c1ncc(C#Cc2cc(F)ccc2NS(=O)(=O)c2ccc(-c3ccccc3)cc2)cc1C` [Compound 313, methyl 5-[2-(2-{[1,1′-biphenyl]-4-sulfonamido}-5-fluorophenyl)ethynyl]-3-methylpyridine-2-carboxylate] displayed a half-inhibitory concentration (IC50) of 1000 to 100000 nM.

As to `CNc1cc(C#Cc2ccccc2NS(=O)(=O)c2ccc(OC)c3cccnc23)cnc1C(=O)O` [Compound 212, 5-{2-[2-(5-methoxyquinoline-8-sulfonamido)phenyl]ethynyl}-3-(methylamino)pyridine-2-carboxylic acid], the IC50 fell in the range of 1 to 10 nM.

`COc1cc(C#Cc2ccccc2NS(=O)(=O)c2cccc3ccccc23)cnc1C(=O)O` [Compound 71, 3-methoxy-5-{2-[2-(naphthalene-1-sulfonamido)phenyl]ethynyl}pyridine-2-carboxylic acid] gave an IC50 of 1000 to 100000 nM.

For the molecule `Cc1c(C)c(S(=O)(=O)Nc2ccccc2C#Cc2ccc(C(=O)O)nc2)c2ncccc2c1C` [Compound 305, 5-{2-[2-(5,6,7-trimethylquinoline-8-sulfonamido)phenyl]ethynyl}pyridine-2-carboxylic acid], the IC50 is 10 to 100 nM.

Consider `CNc1cc(C#Cc2cc(Cl)ccc2NS(=O)(=O)c2ccc(OC)c(C)c2C)cnc1C(=O)O` [Compound 403, 5-{2-[5-chloro-2-(4-methoxy-2,3-dimethylbenzenesulfonamido)phenyl]ethynyl}-3-(methylamino)pyridine-2-carboxylic acid], for which the 50% inhibitory concentration (IC50) lay in the range of 10 to 100 nM.

`COc1ccc(S(=O)(=O)Nc2cc(Cl)ccc2C#Cc2ccc(C(=O)O)nc2)c2ncccc12` [Compound 199, 5-{2-[4-chloro-2-(5-methoxyquinoline-8-sulfonamido)phenyl]ethynyl}pyridine-2-carboxylic acid] yielded an IC50 of 10 to 100 nM.

Molecule `Cc1cc(C(=O)O)ncc1C#Cc1ccccc1NS(=O)(=O)c1cccc2cccnc12` [Compound 61, 4-methyl-5-{2-[2-(quinoline-8-sulfonamido)phenyl]ethynyl}pyridine-2-carboxylic acid] showed a concentration for half-maximal inhibition (IC50) of 100 to 1000 nM.

`O=C(O)c1ccc(C#Cc2ccccc2NS(=O)(=O)c2ccc3oc4ccccc4c3c2)cn1` [Compound 286, 5-[2-(2-{8-oxatricyclo[7.4.0.0^2,7]trideca-1(9),2(7),3,5,10,12-hexaene-4-sulfonamido}phenyl)ethynyl]pyridine-2-carboxylic acid] registered a half-inhibitory concentration (IC50) of 100 to 1000 nM.

As for `O=CN(Cc1cccc(Oc2ccccc2)c1)c1ccccc1C#Cc1ccc(C(=O)O)nc1` [Compound 203, 5-[2-(2-{N-[(3-phenoxyphenyl)methyl]-formamido}phenyl)ethynyl]pyridine-2-carboxylic acid], the half-maximal inhibitory concentration (IC50) fell in the range of 100 to 1000 nM.

The molecule `COc1ccc(NS(=O)(=O)c2ccccc2C#Cc2ccc(C(=O)O)nc2)c(C)c1C` [Compound 430, 5-(2-{2-[(4-methoxy-2,3-dimethylphenyl)sulfamoyl]phenyl}ethynyl)pyridine-2-carboxylic acid] came in with a 50% inhibitory concentration (IC50) of 1000 to 100000 nM.

`O=C(O)c1ccc(C#Cc2ccccc2NS(=O)(=O)c2cnc(Cl)c(Br)c2)cc1` [Compound 34, 4-{2-[2-(5-bromo-6-chloropyridine-3-sulfonamido)phenyl]ethynyl}benzoic acid] displayed a half-maximal inhibitory concentration (IC50) of 1000 to 100000 nM.

For the molecule `Cc1cc(C(=O)O)ncc1C#Cc1ccccc1NS(=O)(=O)c1c(C)ccc2cccnc12` [Compound 107, 4-methyl-5-{2-[2-(7-methylquinoline-8-sulfonamido)phenyl]ethynyl}pyridine-2-carboxylic acid], the half-maximal inhibitory concentration (IC50) is 10 to 100 nM.

The molecule `COC(=O)c1ccc(C#Cc2ccccc2NS(=O)(=O)c2c(C)ccc3cccnc23)cn1` [Compound 143, methyl 5-{2-[2-(7-methylquinoline-8-sulfonamido)phenyl]ethynyl}pyridine-2-carboxylate] returned a half-maximal inhibitory concentration (IC50) of 10 to 100 nM.

In turn, `Cc1ccc2cccnc2c1S(=O)(=O)Nc1ccccc1C#Cc1cnc2c(c1)COC2=O` [Compound 401, 7-methyl-N-[2-(2-{7-oxo-5H,7H-furo[3,4-b]pyridin-3-yl}ethynyl)phenyl]quinoline-8-sulfonamide] yielded an IC50 of 10 to 100 nM.

As to `O=C(O)c1ccc(C#Cc2ccccc2NS(=O)(=O)C2CS(=O)(=O)c3ccccc32)cc1` (stereo not drawn) [Compound 76, 4-{2-[2-(1,1-dioxo-2,3-dihydro-1lambda6-benzo[b]thiophene-3-sulfonamido)phenyl]ethynyl}benzoic acid], the IC50 was in the range of 1000 to 100000 nM.

The molecule `COC(=O)c1ccc(C#Cc2ccccc2NS(=O)(=O)c2cccc(-c3cccnc3)c2)cn1` [Compound 131, methyl 5-(2-{2-[3-(pyridin-3-yl)benzenesulfonamido]phenyl}-ethynyl)pyridine-2-carboxylate] registered an IC50 of 100 to 1000 nM.

For `O=CN(Cc1cnc2ccccc2c1)c1ccccc1C#Cc1ccc(C(=O)O)nc1` [Compound 196, 5-[2-(2-{N-[(quinolin-3-yl)methyl]formamido}phenyl)ethynyl]-pyridine-2-carboxylic acid], the half-inhibitory concentration (IC50) is 1000 to 100000 nM.

`Cc1ccc2cccnc2c1S(=O)(=O)Nc1c(F)cccc1C#Cc1ccc(C(=O)O)nc1` [Compound 106, 5-{2-[3-fluoro-2-(7-methylquinoline-8-sulfonamido)phenyl]ethynyl}pyridine-2-carboxylic acid] yielded a 50% inhibitory concentration (IC50) of 1000 to 100000 nM.

For the molecule `CCOc1cc(C#Cc2ccccc2NS(=O)(=O)c2ccc3ccccc3c2)ccc1C(=O)O` [Compound 57, 2-ethoxy-4-{2-[2-(naphthalene-2-sulfonamido)phenyl]ethynyl}benzoic acid], the IC50 lay in the range of 1000 to 100000 nM.
